Reference: patent US20250213712A1, “ANTIBODY DRUG CONJUGATES COMPRISING CAMPTOTHECIN DERIVATIVES AND USES THEREOF” (priority 2023, published 2025)
Where two headings read alike, the source gives them in different places.

What was measured:
Assay in all cases: In vitro analysis of drugs (MTT cell viability)
MDA-MB-468 cancer cells = format: cell-based; settings: read-out: IC50 ± SD (nM) MDA-MB-468 (TNBC)
Procedure: (§1) The drugs (compounds D1-D6, D21, D25, D27, D28, D35-D37, D46, D47, D48, D49 and controls DXd, FL118 and SN38) were evaluated on NCI-N87, MDA-MB-468, SK-BR-3, HCT116, and JIMT-1 cancer cells. The cancer cells were seeded in 96-well plates at a density of 2,000 to 5,000 cells per well in 100 µL of medium and cultured for 22 to 26 hours. The series of compound was diluted by serial dilution of 1:4˜1:8 from 2 μM to 1 pM with DMSO. The diluted drugs were added to triplicate wells of 96-well plates at 50 μL per well. All assays were performed, by repeating up to 3 times and the results were obtained in up to 3 independent experiments. The plates were incubated for 6 days at 37° C. in a humidified 5% CO2-in-air atmosphere. Cell viability was determined by the MTT assay. The 15 μL of 3-(4,5-dimethylthiazol-2-yl)-2,5-diphenyltetrazolium bromide (MTT) dye dissolved in PBS buffer solution (5 mg/mL) was added to each well of the plates. The formazans formed by reduction of the MTT dye by mitochondrial oxidoreductases in the living cells were dissolved in DMSO, the formazans measured using the absorbance at 550 nm. IC50 (half maximal inhibitory concentration) was generated using a sigmoidal dose-response nonlinear regression curve fit (GraphPad software Inc.).

SK-BR-3 cancer cells = format: cell-based; settings: read-out: IC50 ± SD (nM) SK-BR3 (Breast)
Procedure: as §1

NCI-N87 cancer cells = format: cell-based, human; settings: read-out: IC50 ± SD (nM) NCI-N87 (Gastric)
Procedure: as §1

[1] = Drugs, expression level 0.003 × 10^5, 6 days, MTT
[2] = Drugs, expression level 21.8 × 10^5, 6 days, MTT
[3] = Drugs, expression level 13.2 × 10^5, 6 days, MTT
[4] = Homo sapiens, MDA-MB-468, 144 h

Compound	IC50 (MDA-MB-468 cancer cells; [1]) [nM]	IC50 (SK-BR-3 cancer cells; [2]) [nM]	IC50 (NCI-N87 cancer cells; [3]) [nM]	IC50 (MDA-MB-468 cancer cells; [4]) [nM]	IC50 (SK-BR-3 cancer cells; Homo sapiens, SK-BR-3, 144 h) [nM]	IC50 (NCI-N87 cancer cells; Homo sapiens, NCI-N87, 144 h) [nM]
CCc1c2c(nc3ccc(O)cc13)-c1cc3c(c(=O)n1C2)COC(=O)[C@]3(O)CC [SN38, reference compound]	0.68 ± 0.14	1.82 ± 1.21	6.52 ± 1.55			
CC[C@@]1(O)C(=O)OCc2c1cc1n(c2=O)Cc2c-1nc1cc(F)c(C)c3c1c2[C@@H](NC(=O)C(C)(O)C(F)(F)F)CC3 (some centres unmarked) [Compound D48]				0.4 ± 0.11	1.06 ± 0.15	1.59 ± 0.09
CC[C@@]1(O)C(=O)OCc2c1cc1n(c2=O)Cc2c-1nc1cc3c(cc1c2CCc1ccc(O)cc1)OCO3 [Compound D35]				1.71		5.57
CC[C@@]1(O)C(=O)OCc2c1cc1n(c2=O)Cc2c-1nc1cc(F)c(O)cc1c2-c1ccco1 [Compound D27]				0.86 ± 0.11	1.79 ± 0.34	6.52 ± 0.45
CC[C@@]1(O)C(=O)OCc2c1cc1n(c2=O)Cc2c-1nc1cc(F)c(C)c3c1c2[C@@H](NCc1ccc(O)cc1)CC3 [Compound D46]				0.92 ± 0.12	1.73 ± 0.19	2.2 ± 0.13
CC[C@@]1(O)C(=O)OCc2c1cc1n(c2=O)Cc2c-1nc1cc(F)c(C)cc1c2-c1ccc(O)cc1 [Compound D37]				0.36 ± 0.23	0.89 ± 0.06	1.19 ± 0.25
CC[C@@]1(O)C(=O)OCc2c1cc1n(c2=O)Cc2c-1nc1cc(F)c(C)c3c1c2[C@@H](NCCc1ccc(O)cc1)CC3 [Compound D47]				0.96	1.8	2.13
CC[C@@]1(O)C(=O)OCc2c1cc1n(c2=O)Cc2c-1nc1cc3c(cc1c2-c1ccc(O)cc1)OCO3 [Compound D21]				0.38 ± 0.14	0.61 ± 0.03	1.49 ± 0.53
CC[C@@]1(O)C(=O)OCc2c1cc1n(c2=O)Cc2c-1nc1cc(F)c(C)c3c1c2[C@@H](NC(=O)Cc1ccc(O)cc1)CC3 [Compound D49]				0.83 ± 0.01	1.79 ± 0.24	6.11 ± 0.19
CC[C@@]1(O)C(=O)OCc2c1cc1n(c2=O)Cc2c-1nc1cc(F)c(O)c3c1c2C(O)CC3 (some centres unmarked) [Compound D25]				4.49 ± 0.76	2.81 ± 0.43	27.6 ± 8.26
CC[C@@]1(O)C(=O)OCc2c1cc1n(c2=O)Cc2c-1nc1cc(F)c(O)cc1c2-c1ccoc1 [Compound D28]				2.45 ± 0.37	5.31 ± 0.55	12.7 ± 4.2
CC[C@@]1(O)C(=O)OCc2c1cc1n(c2=O)Cc2c-1nc1cc3c(cc1c2-c1cccc(O)c1)OCO3 [Compound D36]				0.52 ± 0.29	0.91 ± 0.13	1.19 ± 0.02
CC[C@@]1(O)C(=O)OCc2c1cc1n(c2=O)Cc2cc3cc4c(cc3nc2-1)OCO4 [FL118, reference compound]	0.37 ± 0.17	0.86 ± 0.1	1.04 ± 0.18			
CC[C@@]1(O)C(=O)OCc2c1cc1n(c2=O)Cc2c-1nc1cc(F)c(C)c3c1c2[C@@H](NC(=O)CO)CC3 [DXd, reference compound]	0.82 ± 0.3	1.87 ± 0.49	7.12 ± 1.75			
